After the bases stand the sugars from the 5' end (letter, count) and the backbone: PS all phosphorothioate, else s phosphorothioate and o phosphodiester by linkage. Methylation of C is not given here. l = locked nucleic acid (LNA); d = 2'-deoxy (DNA)
Target: SNHG14
Conditions: ASO
[1] = Mouse Primary Neuronal Cell, 0.005 µM

Row | Sequence | target mRNA inhibition (Human Neuronal Cell, 0.2 µM) [%] | target mRNA inhibition (Human Neuronal Cell, 1 µM) [%] | target mRNA inhibition (Human Neuronal Cell, 7.5 µM) [%] | further results
1 | CATGACACTTACATAA (sugars l3 d10 l3, PS) | 31 | 45 | – | –
2 | CATTCAACCCTAATCA (sugars l3 d10 l3, PS) | 26 | 38 | – | –
3 | CATTCTATCTGCCAAA (sugars l2 d10 l4, PS) | 55 | 64 | – | –
4 | CCAACATAGATCCTCT (sugars l2 d10 l4, PS) | 55 | 67 | – | –
5 | CCACCTTAAGTAACAT (sugars l3 d10 l3, PS) | 30 | 43 | – | –
6 | CCATGCTACATAAACC (sugars l4 d10 l2, PS) | 36 | 50 | – | –
7 | CCATTATTTCTTAAATA (sugars l4 d11 l2, PS) | -8 | 8 | – | –
8 | CCATTTATTTCCATTTATTT (sugars ldddldddddddddldldll, PS) | – | – | 56 | –
9 | CCCTCAAAGTAATTTC (sugars l4 d10 l2, PS) | 21 | 20 | – | –
10 | CCTAAGCTCCATATTT (sugars l4 d10 l2, PS) | 39 | 45 | – | –
11 | CCTACATCTCATACTT (sugars l3 d10 l3, PS) | -11 | 3 | – | target mRNA inhibition (Human Neuronal Cell, 5 µM): 13%; target mRNA inhibition [1]: 93.4%
12 | CCTACATCTCATACTTG (sugars l2 d13 l2, PS) | 9 | 10 | – | target mRNA inhibition (Human Neuronal Cell, 5 µM): 36%; target mRNA inhibition [1]: 79.8%
13 | CCTACATCTCATACTTG (sugars l3 d11 l3, PS) | – | – | – | target mRNA inhibition [1]: 96%
14 | CCTACATCTCATACTTGC (sugars l2 d13 l3, PS) | – | – | – | target mRNA inhibition [1]: 96.8%
15 | CCTACATCTCATACTTGC (sugars l3 d12 l3, PS) | -39 | -21 | – | target mRNA inhibition (Human Neuronal Cell, 5 µM): -27%
16 | CCTCTGACAACCATTA (sugars l4 d10 l2, PS) | 30 | 31 | – | –
17 | CCTTAATCTGTATCAC (sugars l3 d10 l3, PS) | 38 | 52 | – | –
18 | CCTTCCCTTTGATAACA (sugars l2 d12 l3, PS) | 43 | 62 | – | –
19 | CGAATCTTGACATACAGG (sugars l3 d12 l3, PS) | 8 | 19 | – | target mRNA inhibition (Human Neuronal Cell, 5 µM): 14%
20 | CTAACTGTTTCTCAATT (sugars l3 d11 l3, PS) | 29 | 32 | – | –
21 | CTAATCCTATTCCAAC (sugars l2 d10 l4, PS) | 33 | 49 | – | –
22 | CTAATGCAATAACCCA (sugars l2 d10 l4, PS) | 45 | 34 | – | –

Row | Sequence | target mRNA inhibition (Human Neuronal Cell, 0.2 µM) [%] | target mRNA inhibition (Human Neuronal Cell, 1 µM) [%] | target mRNA inhibition (Human Neuronal Cell, 7.5 µM) [%] | further results
23 | CTACATCTCATACTTGC (sugars l3 d11 l3, PS) | -4 | -27 | – | target mRNA inhibition (Human Neuronal Cell, 5 µM): 1%; target mRNA inhibition [1]: 94.6%
24 | CTATTCAATAAACTAAACA (sugars l4 d13 l2, PS) | -6 | -9 | – | –
25 | CTCAAAGATCATTCTCA (sugars l1 d2 l1 d7 l6, PS) | – | – | 16 | –
26 | CTCAAAGATCATTCTCA (sugars l3 d10 l1 d1 l2, PS) | – | – | 61 | –
27 | CTCAAAGATCATTCTCA (sugars ldldldddddddlldll, PS) | – | – | 65 | –
28 | CTCATCCCTCCAAGAAA (sugars l4 d11 l2, PS) | -3 | -15 | – | target mRNA inhibition (Human Neuronal Cell, 5 µM): -9%; target mRNA inhibition [1]: 90.9%
29 | CTCATTTACATTATTATT (sugars l4 d12 l2, PS) | 34 | 44 | – | –
30 | CTCCATATTTAAATCC (sugars l4 d10 l2, PS) | 8 | 21 | – | –
31 | CTCCTTTATGACTCCA (sugars l3 d11 l2, PS) | 50 | 56 | – | –
32 | CTCCTTTATGACTCCAA (sugars l4 d11 l2, PS) | 41 | 59 | – | –
33 | CTCTAATCCTATTCCA (sugars l3 d10 l3, PS) | 50 | 58 | – | –
34 | CTCTACAACAGTCCCA (sugars l3 d11 l2, PS) | 53 | 51 | – | –
35 | CTCTGCAATACACCAA (sugars l2 d10 l4, PS) | 54 | 55 | – | –
36 | CTCTTTAGATTCATCC (sugars l4 d10 l2, PS) | 56 | 48 | – | –
37 | CTCTTTGTCAAATACT (sugars l4 d10 l2, PS) | 33 | 13 | – | –
38 | CTGCTTAATTATATCA (sugars l4 d10 l2, PS) | 35 | 38 | – | –
39 | CTGTATACACCATCCCA (sugars l1 d3 l1 d10 l2, PS) | – | – | 65 | –
40 | CTGTATACACCATCCCA (sugars l1 d10 l1 d3 l2, PS) | – | – | 54 | –
41 | CTGTATACACCATCCCA (sugars ldddlddddddddldll, PS) | – | – | 68 | –
42 | CTGTATACACCATCCCA (sugars ldldlddddddddddll, PS) | – | – | 61 | –
43 | CTGTTTATACCCTTTCCA (sugars l1 d4 l1 d10 l2, PS) | – | – | 58 | –
44 | CTGTTTATACCCTTTCCA (sugars l1 d12 l1 d2 l2, PS) | – | – | 58 | –

Row | Sequence | target mRNA inhibition (Human Neuronal Cell, 0.2 µM) [%] | target mRNA inhibition (Human Neuronal Cell, 1 µM) [%] | target mRNA inhibition (Human Neuronal Cell, 7.5 µM) [%] | further results
45 | CTTCACACCTATTATATA (sugars l2 d12 l4, PS) | 7 | 32 | – | –
46 | CTTTAATGCTTCTAAC (sugars l2 d10 l4, PS) | -3 | 26 | – | –
47 | CTTTACTCTGCAATACA (sugars l2 d11 l4, PS) | 49 | 59 | – | –
48 | CTTTCCATTTATTTCCAT (sugars l3 d12 l3, PS) | 43 | 51 | – | –
49 | CTTTCCATTTATTTCCATT (sugars l1 d3 l1 d11 l3, PS) | – | – | 58 | –
50 | CTTTCCATTTATTTCCATT (sugars llddldddddddddlddll, PS) | – | – | 61 | –
51 | CTTTCCATTTATTTCCATTT (sugars l1 d13 l1 d3 l2, PS) | – | – | 35 | –
52 | CTTTCCATTTATTTCCATTT (sugars ldldddldddddddddldll, PS) | – | – | 54 | –
53 | GAAAATCTCAACTACCATT (sugars l3 d1 l1 d10 l4, PS) | – | – | 57 | –
54 | GAAAATCTCAACTACCATT (sugars l4 d10 l2 d1 l2, PS) | – | – | 60 | –
55 | GAAAATCTCAACTACCATT (sugars ldllldddddddlddllll, PS) | – | – | 57 | –
56 | GAAAATCTCAACTACCATT (sugars llddldddddddlddddll, PS) | – | – | 52 | –
57 | GAAACTATTACTCCTA (sugars l2 d10 l4, PS) | 44 | 55 | – | –
58 | GAATCTTCTAATTCCAC (sugars l2 d11 l4, PS) | 29 | 31 | – | –
59 | GACCACACTTTCTACC (sugars l2 d12 l2, PS) | 18 | 42 | – | –
60 | GACCACACTTTCTACCA (sugars l2 d13 l2, PS) | 27 | 48 | – | –
61 | GACCTCAATACTCTAC (sugars l4 d10 l2, PS) | 37 | 44 | – | –
62 | GACCTCAATACTCTACT (sugars l3 d11 l3, PS) | 49 | 58 | – | –
63 | GATCATTCTCAACAATTA (sugars l2 d1 l2 d8 l5, PS) | – | – | 26 | –
64 | GATCATTCTCAACAATTA (sugars ldllldddddddldldll, PS) | – | – | 35 | –
65 | GATCATTCTCAACAATTAA (sugars lldlllddddddlllddll, PS) | – | – | -2 | –
66 | GCAACATTATTAACCACCT (sugars lddldldddddddddddll, PS) | – | – | 60 | –

Row | Sequence | target mRNA inhibition (Human Neuronal Cell, 0.2 µM) [%] | target mRNA inhibition (Human Neuronal Cell, 1 µM) [%] | target mRNA inhibition (Human Neuronal Cell, 7.5 µM) [%] | further results
67 | GCACATTCTTTCTATAC (sugars l1 d1 l3 d9 l3, PS) | – | – | 50 | –
68 | GCACATTCTTTCTATACC (sugars l1 d15 l2, PS) | – | – | 25 | –
69 | GCACATTCTTTCTATACC (sugars ldldlldddddddlddll, PS) | – | – | 54 | –
70 | GCACATTCTTTCTATACC (sugars ldldlldddddddldlll, PS) | – | – | 51 | –
71 | GCATTAGGCACATTACAT (sugars l3 d12 l3, PS) | -8 | 2 | – | target mRNA inhibition (Human Neuronal Cell, 5 µM): 15%
72 | GCTCACACTAATTATT (sugars l2 d10 l4, PS) | 25 | 43 | – | –
73 | GCTCCCAAACAACTAA (sugars l2 d12 l2, PS) | 36 | 72 | – | –
74 | GCTTTTAACCAGAGTGG (sugars l1 d12 l4, PS) | – | – | 73 | –
75 | GTTCTACTATACTTTCCT (sugars l1 d2 l1 d12 l2, PS) | – | – | 53 | –
76 | GTTCTACTATACTTTCCT (sugars l2 d1 l1 d12 l2, PS) | – | – | 60 | –
77 | GTTCTACTATACTTTCCT (sugars lldldlddddddddddll, PS) | – | – | 63 | –
78 | GTTCTACTATACTTTCCTC (sugars lddddldddddddddldll, PS) | – | – | 55 | –
79 | GTTTATACCCTTTCCA (sugars l2 d11 l3, PS) | 49 | 58 | – | –
80 | GTTTATACCCTTTCCAAT (sugars l1 d2 l1 d12 l2, PS) | – | – | 61 | –
81 | GTTTATACCCTTTCCAAT (sugars l1 d13 l4, PS) | – | – | 59 | –
82 | GTTTATACCCTTTCCAAT (sugars ldddlddddddddldlll, PS) | – | – | 56 | –
83 | GTTTATACCCTTTCCAAT (sugars ldlldddddddddldlll, PS) | – | – | 63 | –
84 | GTTTCCATCTACTATTAA (sugars l3 d1 l1 d9 l4, PS) | – | – | 55 | –
85 | GTTTCCATCTACTATTAA (sugars ldddlldddddddlldll, PS) | – | – | 53 | –
86 | GTTTCCATCTACTATTAA (sugars lllddlddddddldddll, PS) | – | – | 47 | –

Reference: the OligoGym collection
